Results taken from patent EP0183174A2, “Substituted phenoxy urea, processes for its preparation and herbicide containing it as active ingredient” (KUMIAI CHEMICAL INDUSTRY CO., LTD., priority 1984, dated 1986).

Assays:
Parameters in all cases: key: 5: Withered; 4.5: Herbicidal effect (or phytotoxicity) in a range of 90 to 99%; 4: Herbicidal effect (or phytotoxicity) in a range of 80 to 89%; 3.5: Herbicidal effect (or phytotoxicity) in a range of 70 to 79%; 3: Herbicidal effect (or phytotoxicity) in a range of 60 to 69%; 2.5: Herbicidal effect (or phytotoxicity) in a range of 50 to 59%; 2: Herbicidal effect (or phytotoxicity) in a range of 40 to 49%; 1.5: Herbicidal effect (or phytotoxicity) in a range of 30 to 39%; 1: Herbicidal effect (or phytotoxicity) in a range of 20 to 29%; 0.5: Herbicidal effect (or phytotoxicity) in a range of 1 to 19%; 0: No herbicidal effect (or no phytotoxicity)
[1] = test system: barnyardgrass; test: Test Example 3: herbicidal test by upland soil treatment; type: in vivo, Echinochloa crus-galli L.; details: evaluated twenty days after application
Description: (§1) Into each plastic pot of 600 cm^2, upland soil was filled, then seeds of barnyardgrass, crabgrass, green foxtail, redroot pigweed, rice flatsedge, rice, wheat, maize, soybean, cotton and sugar beet were sown, and they were covered with soil. A predetermined amount of the wettable powder prepared from the test compound in accordance with Formulation Example 3 and diluted with water, was uniformly applied to the surface of the soil at an application rate of 1000 liter/hectare by means of a small size spray. They were grown in a greenhouse, and twenty days after the application, the herbicidal effects and phytotoxicity were evaluated in accordance with the standards as identified in Table 5.

[2] = test system: Japanese bulrush; test: Test Example 1: herbicidal test by water treatment in a paddy field; type: in vivo, Scir^pus juncoides Roxb.; details: evaluated thirty days after application
Protocol: (§2) Into each porcelain pot having a diameter of 10 cm, paddy soil was filled and puddled, and seeds of barnyardgrass (Echinochloa crus-galli L.), smallflower flatsedge, monochoria and Japanese bulrush were sown, and water was filled in a-depth of 3 cm. One day later, a predetermined amount of the wettable powder prepared in Formulation Example 3 and diluted with water was dropwise applied to the surface of the water (dose of the active ingredient: 4 kg/hectare). Thereafter, they were grown in a green house. Thirty days after the application, the herbicidal effects were evaluated in accordance with the standards as identified in Table 5.

[3] = test system: barnyardgrass (Echinochloa crus-galli L.); test: as above; type: in vivo; details: evaluated thirty days after application
Protocol: as §2

[4] = test system: crabgrass; test: Test Example 3: herbicidal test by upland soil treatment; type: in vivo, Digitaria sanquinalis L.; details: evaluated twenty days after application
Description: as §1

[5] = test system: barnyardgrass; test: Test Example 4: herbicidal test by upland foliage treatment; type: in vivo, Echinochloa crus-galli L.
Protocol: Into each plastic pot of 120 cm^2, upland soil was filled, then seeds of barnyardgrass, crabgrass, redroot pigweed and rice flatsedge were sown, and they were grown in a greenhouse until barnyardgrass. reached 3-leaf stage. Each wettable powder prepared from the test compound in accordance with Formulation Example 3 was diluted with water to give the amount of the active ingredient corresponding to 4 kg/hectare, and the diluted solution was uniformly sprayed at an application rate of 1000 liter/hectare from the top of plants by means of a small size spray, when barnyardgrass was in the 3-leaf stage. They were grown in a greenhouse, and twenty days after the application, the herbicidal effects were evaluated in accordance with the standards as identified in Table 5.

[6] = dose of the active ingredient 4 kg/hectare, wettable powder applied to water surface one day after sowing
[7] = active ingredient 4 kg/hectare, foliage spray 1000 liter/hectare at 3-leaf stage of barnyardgrass, twenty days after application
[8] = water treatment in paddy field pot, dose of active ingredient 4 kg/hectare
[9] = upland foliage treatment, 4 kg/hectare active ingredient, sprayed at 1000 liter/hectare at barnyardgrass 3-leaf stage, evaluated twenty days after application

SMILES | Herbicidal effects Barnyard-grass ([1]; Dose 1 kg/HA) | Herbicidal effects Barnyard-grass ([1]; Dose 4 kg/HA) | Herbicidal effects Japanese bulrush [2, 6] | Herbicidal effects Barnyard grass [3, 6] | Herbicidal effects Crab-grass ([4]; Dose 1 kg/HA) | Herbicidal effects Crab-grass ([4]; Dose 4 kg/HA) | Herbicidal effects Barnyard-grass [5, 7] | Herbicidal effects Japanese bulrush [2, 8] | Herbicidal effects Barnyard grass [3, 8] | Herbicidal effects Barnyard-grass [5, 9]
CN(C)C(=O)NOc1cc(Cl)ccc1Cl [Compound No. 1, 3-(2,5-Dichlorophenoxy)-1,1-dimethyl urea] | 5 | 5 | 5 | 5 | 5 | 5 | 4 (Herbicidal effect (or phytotoxicity) in a range of 80 to 89%) | – | – | –
CC(C)N(C)C(=O)NOc1cc(Cl)cc(Cl)c1 [Compound No. 186, 3-(3,5-Dichlorophenoxy)-1-isopropyl-1-methyl urea trichloroacetate] | 5 | 5 | – | – | 5 | 5 | 5 | 5 | 5 | –
CON(C)C(=O)NOc1cc(Cl)ccc1Cl [Compound No. 242, 3-(2,5-Dichlorophenoxy)-1-methoxy-1-methyl urea] | 5 | 5 | – | – | 5 | 5 | – | 5 | 5 | 4 (Herbicidal effect (or phytotoxicity) in a range of 80 to 89%)
COCCNC(=O)NOc1cc(Cl)ccc1Cl [Compound No. 243] | 5 | 5 | – | – | 5 | 5 | – | 5 | 5 | 5
